Data set [1] is described as follows: Blood concentration after oral administration of 950 and AUDA-nBE, human pharmacokinetic profile. The format is in vivo. The protocol:
FIG. 16 provides a sample preparation procedure for a pharmacokinetic study. A 5 μl whole blood sample was drawn into a capillary at a specific time point, each sample was extracted and anaylzed by LC/MS-MS. […] AUDA is the active metabolite of AUDA-nBE. […] 0.05 mg/kg. (B). 0.1 mg/kg. […] The compounds were administered at the same time in the same formulation. […] 21 mg (0.3 mg/kg) 950 and AUDA-nBE were orally administrated with starch. (B). 7 mg (0.1 mg/kg) formulated 950 and AUDA-NBE were taken with (HPMC, starch and lactose). (C). […] 950 with HPMC and Starch. (B). 950 in lactose and HPMC. […] HPMC forms a gel which slowly erodes; lactose enhances erosion at it moves through the gut and starch retards it. These formulations are combined, ball milled, and then placed in ‘0’ capsule and not compressed.

Another data set deals with T1, mouse sEH (Mus musculus, UniProt P34914).
T1 construct: made in house; host or cells: baculovirus expression system
T1 sequence (P34914 1-554): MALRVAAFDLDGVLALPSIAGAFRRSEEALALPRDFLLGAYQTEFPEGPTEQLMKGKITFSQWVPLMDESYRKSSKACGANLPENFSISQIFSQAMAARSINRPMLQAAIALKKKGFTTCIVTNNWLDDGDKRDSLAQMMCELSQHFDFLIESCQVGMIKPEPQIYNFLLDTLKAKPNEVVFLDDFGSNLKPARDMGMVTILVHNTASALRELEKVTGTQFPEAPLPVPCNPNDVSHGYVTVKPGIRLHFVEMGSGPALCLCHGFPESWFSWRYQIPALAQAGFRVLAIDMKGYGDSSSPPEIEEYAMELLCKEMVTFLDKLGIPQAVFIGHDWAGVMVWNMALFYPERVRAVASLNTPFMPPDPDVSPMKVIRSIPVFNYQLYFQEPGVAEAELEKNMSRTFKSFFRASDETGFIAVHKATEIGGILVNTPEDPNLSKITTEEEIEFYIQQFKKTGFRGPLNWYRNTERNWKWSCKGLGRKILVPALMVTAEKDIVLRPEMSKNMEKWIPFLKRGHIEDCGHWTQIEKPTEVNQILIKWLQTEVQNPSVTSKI
Nature of the data set: Inhibition of recombinant mouse sEH, IC50 assay with 4-nitrophenyl-trans-2,3-epoxy-3-phenylpropyl carbonate as substrate. The format is biochemical. The settings on record: read-out: IC50 (μM) Mouse sEH. The protocol: (§1) Assays were performed in triplicate. […] The curve was generated from at least three separate runs, each in triplicate, to obtain the standard deviation (SD) given in Table 1 thru Table 4.

In the next data set the target is T2, human sEH (Homo sapiens, UniProt P34913).
T2 construct: made in house; host or cells: baculovirus expression system
T2 sequence (P34913 1-555): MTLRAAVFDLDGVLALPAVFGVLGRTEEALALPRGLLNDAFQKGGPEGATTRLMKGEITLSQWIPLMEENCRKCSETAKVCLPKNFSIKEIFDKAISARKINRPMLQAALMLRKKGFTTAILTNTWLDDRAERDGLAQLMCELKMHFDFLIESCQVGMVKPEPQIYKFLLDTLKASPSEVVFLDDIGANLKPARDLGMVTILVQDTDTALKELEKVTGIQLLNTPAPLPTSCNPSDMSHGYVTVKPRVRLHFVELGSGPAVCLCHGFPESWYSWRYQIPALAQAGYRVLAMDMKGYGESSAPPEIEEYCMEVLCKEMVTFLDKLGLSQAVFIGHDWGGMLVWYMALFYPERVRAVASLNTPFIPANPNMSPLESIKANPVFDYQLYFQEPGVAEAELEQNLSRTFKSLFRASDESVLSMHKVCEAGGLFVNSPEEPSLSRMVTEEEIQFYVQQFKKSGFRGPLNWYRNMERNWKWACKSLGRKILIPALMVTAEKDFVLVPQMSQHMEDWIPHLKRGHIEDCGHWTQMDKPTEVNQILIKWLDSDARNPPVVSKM
Nature of the data set: Inhibition of recombinant human sEH, IC50 assay with 4-nitrophenyl-trans-2,3-epoxy-3-phenylpropyl carbonate as substrate. It is filed as biochemical. The note with it: read-out: IC50 (μM) Human sEH. The method, then: as §1

Like-named read-outs stand apart in the source and are kept apart here.

Usually IC50 stands for the midpoint of a concentration-inhibition curve.

As to `COCCOCCOCCOCCCCCNC(=O)NC12CC3CC(CC(C3)C1)C2` [Compound 952], the “pharmacokinetics” value in data set [1] (see FIGS. 15-27) is on record as “improved pharmacokinetics”.

In the case of `CCCC(C)COCCCCCNC(=O)NC12CC3CC(CC(C3)C1)C2` (stereo not shown) [Compound 955], the detection in blood result in data set [1] (FIG. 27, after oral 950) was “not detected at any time point”.

As to `O=C(NCCCCCOCCOCCOCCO)NC12CC3CC(CC(C3)C1)C2` [Compound 975], the concentration for half-maximal inhibition (IC50) is 0.05 ± 0.01 µM at mouse sEH (Table 7, established protocols) and 0.1 ± 0.01 µM on human sEH (Table 7, established protocols).

As to `CC(O)c1cccc2c(S(=O)(=O)NCCOCCOCCCCCNC(=O)NC34CC5CC(CC(C5)C3)C4)cccc12` (stereo not shown) [Compound 976], the 50% inhibitory concentration (IC50) on mouse sEH (Tables 17a and b) was determined as 0.05 ± 0.01 µM; at human sEH (Tables 17a and b), 0.1 ± 0.01 µM.

For `CCCCC(CO)NC(=O)NC1CCCCC1` (stereo not shown) [Compound 977], the IC50 at mouse sEH (Tables 17a and b) amounted to 0.1 ± 0.01 µM; at human sEH (Tables 17a and b), 0.25 ± 0.01 µM.

For `CCCCC(CO)NC(=O)Nc1cccc(Cl)c1` (stereo not shown) [Compound 978], the IC50 at mouse sEH (Tables 17a and b) was 8.4 ± 0.01 µM; on human sEH (Tables 17a and b), 1.9 ± 0.01 µM.

Turning to `CCCCC1COC(Nc2cccc(Cl)c2)=N1` (stereo not shown) [Compound 980], the IC50 at mouse sEH (Tables 17a and b) worked out at 49 ± 0.01 µM; on human sEH (Tables 17a and b), 60 ± 0.01 µM.

As for `C=CCOC1CCC(NC(=O)NC23CC4CC(CC(C4)C2)C3)CC1` (stereo not shown) [Compound 982], the IC50 at mouse sEH (Table 9, established protocols) was found to be 0.05 ± 0.01 µM; at human sEH (Table 9, established protocols), 0.1 ± 0.01 µM.

On to `CC(C)=CCOC1CCC(NC(=O)NC23CC4CC(CC(C4)C2)C3)CC1` (stereo not shown) [Compound 983], for which the IC50 is 0.05 ± 0.01 µM on mouse sEH (Table 9, established protocols) and 0.1 ± 0.01 µM at human sEH (Table 9, established protocols).

Consider `CC(C)=CCC/C(C)=C/COC1CCC(NC(=O)NC23CC4CC(CC(C4)C2)C3)CC1` (stereo not shown) [Compound 984], for which the IC50 on mouse sEH (Table 9, established protocols) was determined as 0.05 ± 0.01 µM; on human sEH (Table 9, established protocols), 0.1 ± 0.01 µM.

Consider `O=C(NC1CCC(OCCOCCOCC(F)(F)F)CC1)NC12CC3CC(CC(C3)C1)C2` (stereo not shown) [Compound 985], for which the IC50 was 0.05 ± 0.01 µM on mouse sEH (Table 9, established protocols) and 0.1 ± 0.01 µM on human sEH (Table 9, established protocols).

On to `CC(C)c1cccc2c(S(=O)(=O)NCCCOCCCCCNC(=O)NC34CC5CC(CC(C5)C3)C4)cccc12` [Compound 986], for which the IC50 at mouse sEH (Tables 17a and b) turned out to be 0.05 ± 0.01 µM; at human sEH (Tables 17a and b), 0.29 ± 0.01 µM.

For the compound `CCCCCOC(=O)CCCCC(=O)Nc1cccc(Cl)c1` [Compound 987], the IC50 came to 1.7 ± 0.01 µM at mouse sEH (Tables 17a and b); 5.9 ± 0.01 µM at human sEH (Tables 17a and b).

For `CCCCCOC(=O)CCCNC(=O)Cc1cccc(Cl)c1` [Compound 988], the IC50 on mouse sEH (Tables 17a and b) is 2.9 ± 0.01 µM; on human sEH (Tables 17a and b), 5 ± 0.01 µM.

Regarding `CCCCCCCCCCCC(=O)NC12CC3CC(CC(C3)C1)C2` [Compound 989], the half-maximal inhibitory concentration (IC50) came to 0.05 ± 0.01 µM on mouse sEH (Table 8, established protocols) and 5 ± 0.3 µM on human sEH (Table 8, established protocols).

Take `O=C(CC1CCCCC1)NCCCc1ccccc1` [Compound 990]: the IC50 was 0.73 ± 0.01 µM at mouse sEH (Tables 17a and b); 1.1 ± 0.01 µM on human sEH (Tables 17a and b).

`O=C(CCCCc1ccccc1)NC1CCCCC1` [Compound 992]: the IC50 at mouse sEH (Tables 17a and b) is 0.05 ± 0.01 µM; on human sEH (Tables 17a and b) it was 1.6 ± 0.01 µM.

Take `O=C(CC1CCCCC1)NCCc1ccccc1` [Compound 993]: the IC50 at mouse sEH (Tables 17a and b) turned out to be 2.1 ± 0.01 µM; on human sEH (Tables 17a and b), 4 ± 0.01 µM.

In the case of `CCCCC(O)CCCCNC(=O)NC12CC3CC(CC(C3)C1)C2` (stereo not shown) [Compound 994], the IC50 on mouse sEH (Tables 17a and b) stood at 0.05 ± 0.01 µM; at human sEH (Tables 17a and b) it was 0.1 ± 0.01 µM.

For the compound `CCCCCNC(=O)NC(CO)c1ccccc1` (stereo not shown) [Compound 995], the IC50 on mouse sEH (Tables 17a and b) amounted to 11 ± 0.01 µM; at human sEH (Tables 17a and b), 22.1 ± 0.01 µM.

For the compound `O=C(NCCCCCCCCCCCn1ccnc1)NC12CC3CC(CC(C3)C1)C2` [Compound 997], the IC50 was 2.3 ± 0.01 µM at mouse sEH (Tables 17a and b); 63 ± 0.01 µM on human sEH (Tables 17a and b).

Turning to `O=C(Nc1ccc2ccccc2c1)NC1CCCCC1` [Compound 998], the IC50 amounted to 0.1 ± 0.01 µM at mouse sEH (Tables 17a and b); 3.7 ± 0.01 µM at human sEH (Tables 17a and b).

On to `CCCCCCCCC(NC(=O)CCCCCCCCCCCNC(=O)NC12CC3CC(CC(C3)C1)C2)C(=O)O` (stereo not shown) [Compound 1001], for which the IC50 at mouse sEH (Tables 17a and b) is 0.05 ± 0.01 µM; on human sEH (Tables 17a and b), 0.24 ± 0.01 µM.

With `CCCC(C)COCCOCCOCCCCCNC(=O)NC12CC3CC(CC(C3)C1)C2` (stereo not shown) [Compound 1003], the IC50 at mouse sEH (Table 7, established protocols) is 0.05 ± 0.01 µM; on mouse sEH (Tables 17a and b), 0.05 ± 0.01 µM; on human sEH (Table 7, established protocols), 0.13 ± 0.01 µM; on human sEH (Tables 17a and b) it was 0.13 ± 0.01 µM.

Consider `O=C(NCCCCCOCCCCCOCC(F)(F)F)NC12CC3CC(CC(C3)C1)C2` [Compound 1004], for which the concentration for half-maximal inhibition (IC50) at mouse sEH (Table 7, established protocols) was 0.05 ± 0.01 µM; at mouse sEH (Tables 17a and b) it was 0.05 ± 0.01 µM; on human sEH (Table 7, established protocols), 0.13 ± 0.01 µM; at human sEH (Tables 17a and b) it was 0.16 ± 0.01 µM.

As to `CCOC(=O)CCCCCCOCCCCCNC(=O)NC12CC3CC(CC(C3)C1)C2` [Compound 1006], the IC50 worked out at 0.05 ± 0.01 µM at mouse sEH (Table 7, established protocols); 0.05 ± 0.01 µM at mouse sEH (Tables 17a and b); 0.11 ± 0.01 µM on human sEH (Table 7, established protocols); 0.11 ± 0.01 µM on human sEH (Tables 17a and b).

Take `O=C(CCCNC(=O)NC12CC3CC(CC(C3)C1)C2)NC(C(=O)N1CCCC1C(=O)O)c1c[nH]cn1` (stereo not shown) [Compound 1012]: the IC50 on mouse sEH (Tables 17a and b) came to 0.09 ± 0.01 µM; on human sEH (Tables 17a and b), 100 ± 0.01 µM.

Turning to `CSC(NC(=O)C(NC(=O)CCCNC(=O)NC12CC3CC(CC(C3)C1)C2)c1c[nH]cn1)C(=O)O` (stereo not shown) [Compound 1013], the IC50 at mouse sEH (Tables 17a and b) is 0.05 ± 0.01 µM; at human sEH (Tables 17a and b), 1.5 ± 0.01 µM.

Turning to `CCOC(=O)c1ccc(C(C#N)OC(=O)C2CCCC(NC(=O)NC34CC5CC(CC(C5)C3)C4)C2)cc1` (stereo not shown) [Compound 1014], the IC50 is 0.05 ± 0.01 µM at mouse sEH (Table 9, established protocols) and 0.14 ± 0.01 µM at human sEH (Table 9, established protocols).

On to `O=C(NN1CCOCC1)NC12CC3CC(CC(C3)C1)C2` [Compound 1015], for which the half-inhibitory concentration (IC50) was 1.3 ± 0.01 µM on mouse sEH (Tables 17a and b); 8.7 ± 0.01 µM on human sEH (Tables 17a and b).

Take `O=C(NCCCN1CCOCC1)NC12CC3CC(CC(C3)C1)C2` [Compound 1016]: the IC50 is 0.05 ± 0.01 µM at mouse sEH (Tables 17a and b); 6 ± 0.01 µM on human sEH (Tables 17a and b).

`CCCCCOC(=O)CCCNC(=O)CC12CC3CC(CC(C3)C1)C2` [Compound 1017]: the IC50 at mouse sEH (Table 8, established protocols) was found to be 0.05 ± 0.01 µM; on human sEH (Table 8, established protocols), 0.43 ± 0.02 µM.

Turning to `CCCCCCCCCCNC(=O)CC12CC3CC(CC(C3)C1)C2` [Compound 1018], the IC50 at mouse sEH (Table 8, established protocols) was determined as 0.05 ± 0.01 µM; on human sEH (Table 8, established protocols) it was 0.1 ± 0.01 µM.
